The first experiment concerns the target Endothelial lipase (EL) (Homo sapiens (Human), UniProt Q9Y5X9). Briefly: Endothelial lipase (EL) enzymatic assay with fluorescent substrate A10070 in DMPG vesicles. It is filed as biochemical.
Settings: not given
In a few lines: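 Compounds were preincubated with enzyme for 30 min at 37° C before FRET-substrate vesicles (A10070 in DMPG, 0.11 mole fraction) were added. Reaction rates were obtained from the 300–900 sec slope of fluorescence at 490/530 nm.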
Chain of Endothelial lipase (EL) (Q9Y5X9 21-500): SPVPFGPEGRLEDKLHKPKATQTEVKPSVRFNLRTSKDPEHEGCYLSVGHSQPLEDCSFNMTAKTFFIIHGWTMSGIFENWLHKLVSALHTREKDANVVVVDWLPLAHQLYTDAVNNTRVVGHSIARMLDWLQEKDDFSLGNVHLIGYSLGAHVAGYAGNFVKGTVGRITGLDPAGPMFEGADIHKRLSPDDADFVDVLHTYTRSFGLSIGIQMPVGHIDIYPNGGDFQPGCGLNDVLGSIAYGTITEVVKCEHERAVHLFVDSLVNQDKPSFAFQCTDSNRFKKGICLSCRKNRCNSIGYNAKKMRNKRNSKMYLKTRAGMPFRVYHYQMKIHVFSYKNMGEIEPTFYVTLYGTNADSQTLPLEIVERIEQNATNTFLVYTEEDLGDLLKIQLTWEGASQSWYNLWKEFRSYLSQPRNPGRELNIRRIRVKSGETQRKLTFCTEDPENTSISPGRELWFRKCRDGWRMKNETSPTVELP
On to `COCCS(=O)(=O)C(C(=O)NCC(=O)NC1CC1)c1nc2cc(C)c(-c3ccc4[nH]c(=O)ccc4c3)cc2s1` (stereo not drawn) [Example 151, N-[(cyclopropyl-carbamoyl)methyl]-2-(2-methoxyethane-sulfonyl)-2-[5-methyl-6-(2-oxo-1,2-dihydroquinolin-6-yl)-1,3-benzothiazol-2-yl]acetamide], for which the IC50 (in general, the concentration that inhibits the measured activity by half) was found to be 2 nM.

On to `COC(=O)N(C)c1cccc(-c2ccc3nc(C(C(=O)NCC(=O)NC4CC4)S(C)(=O)=O)sc3c2)c1` (stereo not drawn) [Example 544, methyl N-{3-[2-({[(cyclopropyl-carbamoyl)methyl]carbamoyl} (methanesulfonyl)methyl)-1,3-benzothiazol-6-yl]phenyl}-N-methylcarbamate], for which the 50% inhibitory concentration (IC50) was 19 nM.

On to `Cc1cc2nc(C(C(=O)NCC(=O)NC3CC3)S(=O)(=O)C(C)C)sc2cc1-c1ccc(C(=O)N2CCC2)cc1` (stereo not drawn) [Example 259, 2-{6-[4-(azetidine-1-carbonyl)phenyl]-5-methyl-1,3-benzothiazol-2-yl}-N-[(cyclopropyl-carbamoyl)methyl]-2-(propane-2-sulfonyl)acetamide], for which it took 3 nM to reach half-maximal inhibition (IC50).

In the case of `Cc1nc2cc(-c3cc4sc(C(C(=O)NCC(=O)NC5CC5)S(=O)(=O)C(C)C)nc4cc3F)ccc2s1` (stereo not drawn) [Example 238, N-[(cyclopropyl-carbamoyl)methyl]-2-[5-fluoro-6-(2-methyl-1,3-benzothiazol-5-yl)-1,3-benzothiazol-2-yl]-2-(propane-2-sulfonyl)acetamide], half-maximal inhibition (IC50) was put at 5 nM. This IC50 is about 1.7-fold higher than that of the molecule before.

`CC(=O)Nc1cccc(-c2cc3nc(C(C(=O)NCC(=O)NC4CC4)S(C)(=O)=O)sc3cc2F)c1` (stereo not drawn) [Example 115, N-[(cyclopropyl-carbamoyl)methyl]-2-[5-(3-acetamidophenyl)-6-fluoro-1,3-benzothiazol-2-yl]-2-methanesulfonyl-acetamide] came in with an IC50 of 12 nM.

Regarding `CS(=O)(=O)C(C(=O)NCC(=O)NC1CC1)c1nc2cc(-c3cccnc3F)c(F)cc2s1` (stereo not drawn) [Example 367, N-[(cyclopropyl-carbamoyl)methyl]-2-[6-fluoro-5-(2-fluoropyridin-3-yl)-1,3-benzothiazol-2-yl]-2-methanesulfonyl-acetamide], inhibition was half-maximal at 25 nM (IC50).

Regarding `O=C(CNC(=O)C(c1nc2ccc(-c3cccnc3F)cc2s1)S(=O)(=O)N1CCOCC1)NC1CC1` (stereo not drawn) [Example 482, N-[(cyclopropyl-carbamoyl)methyl]-2-[6-(2-fluoropyridin-3-yl)-1,3-benzothiazol-2-yl]-2-(morpholine-4-sulfonyl)acetamide], the IC50 was 173 nM.

`COCCS(=O)(=O)C(C(=O)NCC(=O)NC1CC1)c1nc2ccc(-c3cnn(CC(C)(C)O)c3)cc2s1` (stereo not drawn) [Example 110, N-[(cyclopropyl-carbamoyl)methyl]-2-{6-[1-(2-hydroxy-2-methylpropyl)-1H-pyrazol-4-yl]-1,3-enzothiazol-2-yl}-2-(2-methoxyethane-sulfonyl) acetamide]: the IC50 was 31 nM.

With `CC(C)S(=O)(=O)C(C(=O)NCC(=O)NC1CC1)c1nc2cc(-c3cccc4c3cnn4C)c(F)cc2s1` (stereo not drawn) [Example 274, N-[(cyclopropyl-carbamoyl)methyl]-2-[6-fluoro-5-(1-methyl-1H-indazol-4-yl)-1,3-benzothiazol-2-yl]-2-(propane-2-sulfonyl)acetamide], the IC50 came out at 3 nM.

`CCCS(=O)(=O)C(C(=O)NCC(=O)NC1CC1)c1nc2cc(F)c(-c3ccc(NC(=O)OCc4ccccc4)cc3)cc2s1` (stereo not drawn) [Example 52, benzyl N-{4-[2-({[(cyclopropyl-carbamoyl)methyl]carbamoyl} (propane-1-sulfonyl)methyl)-5-fluoro-1,3-benzothiazol-6-yl]phenyl} carbamate] came in with an IC50 of 1 nM.

On to `CN(C)S(=O)(=O)C(C(=O)NCC(=O)NC1CC1)c1nc2c(F)cc(-c3ccc(-c4ccccc4)nc3)cc2s1` (stereo not drawn) [Example 498, N-[(cyclopropyl-carbamoyl)methyl]-2-(dimethyl-sulfamoyl)-2-[4-fluoro-6-(6-phenylpyridin-3-yl)-1,3-benzothiazol-2-yl]acetamide], for which the IC50 was 3 nM.

As for `COCCS(=O)(=O)C(C(=O)NCC(=O)NC1CC1)c1nc2ccc(-c3ccc4c(c3)CNC4=O)cc2s1` (stereo not drawn) [Example 340, N-[(cyclopropyl-carbamoyl)methyl]-2-(2-methoxyethane-sulfonyl)-2-[6-(1-oxo-2,3-dihydro-1H-isoindol-5-yl)-1,3-benzothiazol-2-yl]acetamide], the midpoint of inhibition, the IC50, lay at 9 nM.

In turn, `COCCS(=O)(=O)C(C(=O)NCC(=O)NC1CC1)c1nc2ccc(-c3ccc(C(=O)N4CC[C@H](OC)C4)cc3)cc2s1` (stereo partly drawn) [Example 403, N-[(cyclopropyl-carbamoyl)methyl]-2-(2-methoxyethane-sulfonyl)-2-(6-{4-[(3S)-3-methoxy-pyrrolidine-1-carbonyl]phenyl}-1,3-benzothiazol-2-yl)acetamide] displayed an IC50 of 8 nM.

In turn, `COCCS(=O)(=O)C(C(=O)NCC(=O)NC1CC1)c1nc2cc(C(F)(F)F)c(Br)cc2s1` (stereo not drawn) [Example 165, 2-[6-bromo-5-(trifluoromethyl)-1,3-benzothiazol-2-yl]-N-[(cyclopropyl-carbamoyl)methyl]-2-(2-methoxyethane-sulfonyl) acetamide] came in with an IC50 of 18 nM. This IC50 lies about 2.2-fold higher than the previous one.

`CC(C)CS(=O)(=O)C(C(=O)NCC(=O)NC1CC1)c1nc2ccc(-c3ccc(F)nc3)cc2s1` (stereo not drawn) [Example 516, N-[(cyclopropyl-carbamoyl)methyl]-2-[6-(6-fluoropyridin-3-yl)-1,3-benzothiazol-2-yl]-2-(2-methylpropane-sulfonyl)acetamide] had an IC50 of 57 nM.

`COCCS(=O)(=O)C(C(=O)NCC(=O)NC1CC1)c1nc2ccc(-c3ccc(C(=O)N4CC(F)(F)C4)cc3)cc2s1` (stereo not drawn) [Example 406, N-[(cyclopropyl-carbamoyl)methyl]-2-{6-[4-(3,3-difluoroazetidine-1-carbonyl)phenyl]-1,3-benzothiazol-2-yl}-2-(2-methoxyethane-sulfonyl)acetamide] registered an IC50 of 13 nM.

Turning to `O=C(CNC(=O)C(c1nc2ccc(-c3ccc(C(=O)N4CCOCC4)cc3)cc2s1)S(=O)(=O)c1ccc(F)cc1)NC1CC1` (stereo not drawn) [Example 448, N-[(cyclopropyl-carbamoyl)methyl]-2-(4-fluorobenzene-sulfonyl)-2-{6-[4-(morpholine-4-carbonyl)phenyl]-1,3-benzothiazol-2-yl}acetamide], the IC50 came to 10 nM. The IC50 values of the last two molecules are within 1.5-fold of each other.

In turn, `COCCS(=O)(=O)C(C(=O)NCC(=O)NC1CC1)c1nc2cc(-c3cccc(C(=O)N4CCOCC4)c3)ccc2s1` (stereo not drawn) [Example 395, N-[(cyclopropyl-carbamoyl)methyl]-2-(2-methoxyethane-sulfonyl)-2-{5-[3-(morpholine-4-arbonyl)phenyl}-1,3-benzothiazol-2-yl}acetamide] had an IC50 of 4 nM.

Take `COCCS(=O)(=O)C(C(=O)NCC(=O)NC1CC1)c1nc2cc(F)c(-c3ccc(-n4cccn4)cc3)cc2s1` (stereo not drawn) [Example 139, N-[(cyclopropyl-carbamoyl)methyl]-2-{5-fluoro-6-[4-(1H-pyrazol-1-yl)phenyl]-1,3-benzothiazol-2-yl}-2-(2-methoxyethane-sulfonyl) acetamide]: the IC50 came out at 2 nM.

Molecule `COCCS(=O)(=O)C(C(=O)NCC(=O)NC1CC1)c1nc2ccc(-c3cccc(F)n3)cc2s1` (stereo not drawn) [Example 314, N-[(cyclopropyl-carbamoyl)methyl]-2-[6-(6-fluoropyridin-2-yl)-1,3-benzothiazol-2-yl]-2-(2-methoxyethane-sulfonyl)acetamide] returned an IC50 of 150 nM.

In turn, `COCCS(=O)(=O)C(C(=O)NCC(=O)NC1CC1)c1nc2cc(C(F)(F)F)c(-c3cnc(C)nc3)cc2s1` (stereo not drawn) [Example 178, N-[(cyclopropyl-carbamoyl)methyl]-2-(2-methoxyethane-sulfonyl)-2-[6-(2-methylpyrimidin-5-yl)-5-(trifluoromethyl)-1,3-benzothiazol-2-yl]acetamide] returned an IC50 of 56 nM.

In turn, `CCOc1ccc(-c2ccc3sc(C(C(=O)NCC(=O)NC4CC4)S(=O)(=O)CCOC)nc3c2)cn1` (stereo not drawn) [Example 69, N-[(cyclopropyl-carbamoyl)methyl]-2-[5-(6-ethoxypyridin-3-yl)-1,3-benzothiazol-2-yl]-2-(2-methoxyethane-sulfonyl) acetamide] returned an IC50 of 23 nM.

On to `COCCS(=O)(=O)C(C(=O)NCC(=O)NC1CC1)c1nc2cc(-c3ccncc3F)ccc2s1` (stereo not drawn) [Example 73, N-[(cyclopropyl-carbamoyl)methyl]-2-[5-(3-fluoropyridin-4-yl)-1,3-benzothiazol-2-yl]-2-(2-methoxyethane-sulfonyl) acetamide], for which the IC50 stood at 28 nM.

The molecule `COCCS(=O)(=O)C(C(=O)NCC(=O)NC1CC1)c1nc2cc(F)c(-c3cnc(C4CC4)nc3)cc2s1` (stereo not drawn) [Example 155, N-[(cyclopropyl-carbamoyl)methyl]-2-[6-(2-cyclopropyl-pyrimidin-5-yl)-5-fluoro-1,3-benzothiazol-2-yl]-2-(2-methoxyethane-sulfonyl) acetamide] gave an IC50 of 7 nM.

Turning to `COc1ccc(-c2ccc3nc(C(C(=O)NCC(=O)NC4CC4)S(=O)(=O)c4ccc(F)cc4)sc3c2)cn1` (stereo not drawn) [Example 456, N-[(cyclopropyl-carbamoyl)methyl]-2-(4-fluorobenzene-sulfonyl)-2-[6-(6-methoxypyridin-3-yl)-1,3-benzothiazol-2-yl]acetamide], 109 nM corresponded to half-maximal inhibition (IC50).

The molecule `CC(C)S(=O)(=O)C(C(=O)NCC(=O)NC1CC1)c1nc2cc(F)c(-c3ccc(NC(N)=O)cc3)cc2s1` (stereo not drawn) [Example 5, 2-{6-[4-(carbamoyl-amino)phenyl]-5-fluoro-1,3-benzothiazol-2-yl}-N-[(cyclopropyl-carbamoyl)methyl]-2-(propane-2-sulfonyl) acetamide] yielded an IC50 of 9 nM.

Still in this experiment, the particulars now being: EL from conditioned media of HT-1080 cells; 30 min preincubation at 37° C.
Take `O=C(CNC(=O)C(c1nc2ccc(-c3ccc(F)nc3)cc2s1)S(=O)(=O)CCO)NC1CC1` (stereo not drawn) [Example 509, N-[(Cyclopropylcarbamoyl)methyl]-2-[6-(6-fluoropyridin-3-yl)-1,3-benzothiazol-2-yl]-2-(2-hydroxyethanesulfonyl)acetamide]: the IC50 was 280 nM.
